Structures are written as SMILES. A value given as a limit tells only on which side of the number the result lay.

The assay concerns the target T1, human GLP-1 receptor (Homo sapiens, UniProt P43220).
T1 construct: expressed in transfected cells
Put plainly: GLP-1R cAMP assay (cAMP accumulation in CHO cells stably overexpressing the human GLP-1 receptor, HitHunter kit). The class given is cell-based. The note with it: CHO cells stably overexpressing human GLP-1R, 30 min, 20-point dose response in triplicate. As to the method:
CAMP accumulation was measured in Chinese hamster ovary (CHO) cells (10,000 cells/well) stably overexpressing the human GLP-1 receptor using the HitHunter CAMP Assay for Small Molecules Kit (Eurofins). Briefly, cells were grown in Ham's F12 Nutrient Mix with 10% FBS, and lifted with Cell Dissociation Buffer, Enzyme free, PBS based (ThermoFisher). Cells were pelleted, and resuspended in Hank's buffered saline solution with 10 mM HEPES, and 625 μM 3-isobutyl-1-methylxanthine. The anti-cAMP antibody reagent was then added to cells at a 1:2 ratio and 5 μL of mixture was seeded in 384-well small volume white assay plates, at 10,000 cells/well. Cells were then treated with 50 nL compound using an ECHO 550 acoustic dispenser (Labcyte) in a 20-point dose response format in triplicate for 30 min. Cells were then lysed, and detection reagents added according to the manufacturer's protocol. After overnight incubation, luminescence was measured using a Perkin Elmer Envision plate reader. Dose response curves were analyzed using GraphPad Prism 9.0.
In the Table, EC50 values are designated as follows: • A: 0 nM<EC50<0.1 nM; • B: 0.1 nM≤EC50<1.0 nM; • C: 1.0 nM≤EC50<10.0 nM; • D: 10.0 nM≤EC50<100 nM; • E: 100 nM≤EC50<500 nM; and • F: ≥500 nM

T1 sequence (P43220 24-463): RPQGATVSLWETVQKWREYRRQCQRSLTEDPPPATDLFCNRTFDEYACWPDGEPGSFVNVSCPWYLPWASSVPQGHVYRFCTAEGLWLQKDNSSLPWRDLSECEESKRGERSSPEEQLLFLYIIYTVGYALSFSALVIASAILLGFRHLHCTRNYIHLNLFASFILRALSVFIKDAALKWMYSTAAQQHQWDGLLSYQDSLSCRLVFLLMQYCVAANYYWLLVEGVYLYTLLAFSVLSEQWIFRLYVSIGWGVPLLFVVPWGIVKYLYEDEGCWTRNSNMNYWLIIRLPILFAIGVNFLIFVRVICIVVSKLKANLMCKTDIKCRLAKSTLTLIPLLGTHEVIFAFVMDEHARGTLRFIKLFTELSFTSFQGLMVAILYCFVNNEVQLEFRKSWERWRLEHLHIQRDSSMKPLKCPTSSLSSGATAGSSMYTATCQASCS

As to `C[C@H]1C[C@@H](Oc2ccnc(COc3ccc(F)cc3F)n2)CCN1Cc1nc2ccc(C(=O)Nc3cccnc3)cc2n1C[C@@H]1CCO1` [Compound 638, 2-(((2S,4S)-4-((2-((2,4-Difluorophenoxy)methyl)pyrimidin-4-yl)oxy)-2-methylpiperidin-1-yl)methyl)-1-(((S)-oxetan-2-yl)methyl)-N-(pyridin-3-yl)-1H-benzo[d]imidazole-6-carboxamide], the EC50 fell in the range of 10 to 100 nM. The result for `N#Cc1ccc(OCc2nccc(O[C@H]3CC[C@H](Cc4nc5ccc(C(=O)O)cc5n4C[C@@H]4CCO4)CC3)n2)c(F)c1` [Compound 640, 1-{[(2S)-oxetan-2-yl]methyl}-2-{[(1r,4r)-4-({2-[(4-cyano-2-fluorophenoxy)methyl]pyrimidin-4-yl}oxy)cyclohexyl]methyl}-1H-1,3-benzodiazole-6-carboxylic acid] reads < 0.1 nM; that for `CC[C@@H]1C[C@H](Oc2ccnc(COc3ncc(Cl)cc3F)n2)CCN1Cc1nc2ccc(C(=O)O)cc2n1C[C@@H]1CCO1` [Compound 609, 2-{[(2R,4R)-4-[(2-{[(5-Chloro-3-fluoropyridin-2-yl)oxy]methyl}pyrimidin-4-yl)oxy]-2-ethylpiperidin-1-yl]methyl}-1-[(oxetan-2-yl)methyl]-1H-1,3-benzodiazole-6-carboxylic acid], 10 to 100 nM. The result for `CO[C@H]1COC[C@H]1n1c(CN2CC[C@H](Oc3ccnc(COc4ccc(F)cc4F)n3)C[C@@H]2C)nc2ccc(C(=O)O)cc21` [Compound 577, 2-(((2S,4S)-4-((2-((2,4-Difluorophenoxy)methyl)pyrimidin-4-yl)oxy)-2-methylpiperidin-1-yl)methyl)-1-((3R,4R)-4-methoxytetrahydrofuran-3-yl)-1H-benzo[d]imidazole-6-carboxylic acid] reads 0.1 to 1 nM; that for `C[C@H]1C[C@@H](Oc2ccnc(COc3ccc(F)cc3F)n2)CCN1Cc1nc2ccc(C(=O)NO)cc2n1C[C@@H]1CCO1` [Compound 559, 2-(((2S,4S)-4-((2-((2,4-Difluorophenoxy)methyl)pyrimidin-4-yl)oxy)-2-methylpiperidin-1-yl)methyl)-N-hydroxy-1-(((S)-oxetan-2-yl)methyl)-1H-benzo[d]imidazole-6-carboxamide], 0.1 to 1 nM. The result for `C[C@H]1C[C@@H](Oc2ccnc(COc3ccc(C#N)cn3)n2)CCN1Cc1nc2ccc(C(=O)O)cc2n1C[C@@H]1CCO1` [Compound 567, 2-{[(2S,4S)-4-[(2-{[(5-Cyanopyridin-2-yl)oxy]methyl}pyrimidin-4-yl)oxy]-2-methylpiperidin-1-yl]methyl}-1-{[(2S)-oxetan-2-yl]methyl}-1H-1,3-benzodiazole-6-carboxylic acid] reads 0.1 to 1 nM; that for `O=C(O)c1cc(F)c2nc(CN3CCC(Oc4ccnc(COc5ncc(Cl)cc5F)c4)CC3)n(C[C@@H]3CCO3)c2c1` [Compound 613, (S)-2-((4-((2-(((5-Chloro-3-fluoropyridin-2-yl)oxy)methyl)pyridin-4-yl)oxy)piperidin-1-yl)methyl)-4-fluoro-1-(oxetan-2-ylmethyl)-1H-benzo[d]imidazole-6-carboxylic acid], 0.1 to 1 nM; that for `C[C@H]1C[C@@H](Oc2ccnc(COc3ccc(C#N)cc3F)n2)CCN1Cc1nc2ccc(C(=O)O)cc2n1C[C@@H]1CCCO1` [Compound 579, 2-{[(2S,4S)-4-({2-[(4-cyano-2-fluorophenoxy)methyl]pyrimidin-4-yl}oxy)-2-methylpiperidin-1-yl]methyl}-1-{[(2S)-oxolan-2-yl]methyl}-1H-1,3-benzodiazole-6-carboxylic acid], 0.1 to 1 nM. On to `C[C@H]1C[C@@H](Oc2ccnc(COc3ccc(F)cc3C#N)n2)CCN1Cc1nc2ccc(C(=O)O)c(F)c2n1C[C@@H]1CCO1` [Compound 573, 2-{[(2S,4S)-4-({2-[(2-cyano-4-fluorophenoxy)methyl]pyrimidin-4-yl}oxy)-2-methylpiperidin-1-yl]methyl}-7-fluoro-1-{[(2S)-oxetan-2-yl]methyl}-1H-1,3-benzodiazole-6-carboxylic acid], for which the EC50 is < 0.1 nM.

For `C[C@H]1C[C@@H](Oc2ccnc(COc3ncc(Cl)cc3F)n2)CCN1Cc1nc2ccc(C(=O)O)cc2n1C[C@@H]1CCO1` [Compound 554, 2-(((2S,4S)-4-((2-(((5-Chloro-3-fluoropyridin-2-yl)oxy)methyl)pyrimidin-4-yl)oxy)-2-methylpiperidin-1-yl)methyl)-1-(((S)-oxetan-2-yl)methyl)-1H-benzo[d]imidazole-6-carboxylic acid], the EC50 is < 0.1 nM.

The compound `C[C@H]1C[C@@H](Oc2ccnc(COc3ccc(F)cc3F)n2)CCN1Cc1nc2ccc(C(=O)O)cc2n1C[C@H]1CCOC1` [Compound 575, 2-{[(2S,4S)-4-({2-[(2,4-Difluorophenoxy)methyl]pyrimidin-4-yl}oxy)-2-methylpiperidin-1-yl]methyl}-1-{[(3R)-oxolan-3-yl]methyl}-1H-1,3-benzodiazole-6-carboxylic acid] returned an EC50 of 0.1 to 1 nM. For `C[C@H]1C[C@@H](Oc2ccnc(COc3ncc(Cl)cc3F)c2)CCN1Cc1nc2ccc(C(=O)O)cc2n1C[C@@H]1CCO1` [Compound 615, 2-(((2S,4S)-4-((2-(((5-Chloro-3-fluoropyridin-2-yl)oxy)methyl)pyridin-4-yl)oxy)-2-methylpiperidin-1-yl)methyl)-1-(((S)-oxetan-2-yl)methyl)-1H-benzo[d]imidazole-6-carboxylic acid] the value was 0.1 to 1 nM; for `O=C(O)c1cc(F)c2nc(CN3CCC(Oc4ccnc(COc5ncc(Cl)cc5F)n4)CC3)n(C[C@@H]3CCO3)c2c1` [Compound 605, 2-({4-[(2-{[(5-Chloro-3-fluoropyridin-2-yl)oxy]methyl}pyrimidin-4-yl)oxy]piperidin-1-yl}methyl)-4-fluoro-1-{[(2S)-oxetan-2-yl]methyl}-1H-1,3-benzodiazole-6-carboxylic acid], < 0.1 nM. `C[C@@H](Cn1c(CN2CC[C@H](Oc3ccnc(COc4ccc(F)cc4F)n3)C[C@@H]2C)nc2ccc(C(=O)O)cc21)OC1CC1` [Compound 612, 1-((S)-2-cyclopropoxypropyl)-2-(((2S,4S)-4-((2-((2,4-difluorophenoxy)methyl)pyrimidin-4-yl)oxy)-2-methylpiperidin-1-yl)methyl)-1H-benzo[d]imidazole-6-carboxylic acid]: the EC50 fell in the range of 1 to 10 nM. Turning to `N#Cc1ccc(OCc2nccc(O[C@H]3CCN(Cc4nc5ccc(C(=O)O)cc5n4C[C@@H]4CCO4)[C@@H](C(F)(F)F)C3)n2)c(F)c1` [Compound 599, 2-{[(2R,4S)-4-({2-[(4-cyano-2-fluorophenoxy)methyl]pyrimidin-4-yl}oxy)-2-(trifluoromethyl)piperidin-1-yl]methyl}-1-{[(2S)-oxetan-2-yl]methyl}-1H-1,3-benzodiazole-6-carboxylic acid], the EC50 was 0.1 to 1 nM.

`C[C@H]1C[C@@H](Oc2ccnc(COc3ncc(C#N)cc3F)n2)CCN1Cc1nc2ccc(C(=O)O)cc2n1C[C@@H]1CCCO1` [Compound 631, 2-(((2S,4S)-4-((2-(((5-cyano-3-fluoropyridin-2-yl)oxy)methyl)pyrimidin-4-yl)oxy)-2-methylpiperidin-1-yl)methyl)-1-(((S)-tetrahydrofuran-2-yl)methyl)-1H-benzo[d]imidazole-6-carboxylic acid] returned an EC50 of 0.1 to 1 nM.

What is called EC50 is the concentration that produces a half-maximal response. High values mean a less potent agent, low ones a more potent agent.

The values above are taken from patent US20260317309A1, “N-HETEROCYLIC GPCR RECEPTOR AGONISTS, PHARMACEUTICAL COMPOSITIONS COMPRISING THE SAME, AND METHODS FOR THEIR USE” (Carmot Therapeutics, Inc., priority 2022, published 2026).
